Results as given in US6514968B1, “Aminoalkoxy carbazoles for the treatment of cns diseases” (Pharmacia & Upjohn Company, priority 1999, dated 2003).

Target: T1, cloned human 5-HT6 receptor (Homo sapiens, UniProt P50406)
T1 construct: host or cells: HeLa cells (G-418 selection), membrane preparation
Test: 5-HT6 Receptor Binding Assay
Details: [3H]-lysergic acid diethylamide (LSD) radioligand, membranes of Hela cells containing the cloned human 5-HT6 receptor, SPA beads; estimated IC50 converted to Ki by Cheng-Prusoff
Description: 5-HT6 Receptor Binding Assay
Growth of Cells and Membrane Preparation
Hela cells containing the cloned human 5-HT6 receptor were acquired from Dr. David R. Sibley's laboratory in National Institute of Health (see Sibley, D. R., J. Neurochemistry, 66, 47-56, 1996). Cells were grown in high glucose Dulbecco's modified Eagle's medium, supplemented with L-glutamine, 0.5% sodium pyruvate, 0.3% penicillin-streptomycin, 0.025% G-418 and 5% Gibco fetal bovine serum and then were harvested, when confluent, in cold phosphate-buffered saline.
Harvested intact cells were washed once in cold phosphate-buffered saline. The cells were pelleted and resuspended in 100 ml of cold 50 mM Tris, 5 mM EDTA and 5 mM EGTA, pH 7.4. Homogenization was with a Vir Tishear generator, 4 cycles for 30 seconds each at setting 50. The homogenized cells were centrifuged at 700 RPM (1000×g) for 10 minutes and the supernatant was removed. The pellet was resuspended in 100 ml of the above buffer and rehomogenized for 2 cycles. The rehomogenized cells were then centrifuged at 700 RPM (1000×g) for 10 minutes and the supernatant was removed. The combined supernatant (200ml) was centrifuged at 23,000 RPM (80,000×g) for 1 hour in a Beckman Rotor (42.1 Ti). The membrane pellet was resupended in 50-8-ml of assay buffer containing HEPES 20 mM, MgCl2 10 mM, NaCl 150 mM, EDTA 1 mM, pH 7.4 and stored frozen in aliqouts at −70° C.
The radioligand binding assay used [^3H]-lysergic acid diethylamide (LSD). The assay was carried out in Wallac 96-well sample plates by the addition of 11 μl of the test sample at the appropriate dilution (the assay employed 11 serial concentrations of samples run in duplicate), 11 μl of radioligand, and 178 μl of a washed mixture of WGA-coated SPA beads and membranes in binding buffer. The plates were shaken for about 5 minutes and then incubated at room temperature for 1 hour. The plates were then loaded into counting cassettes and counted in a Wallac MicroBeta Trilux scintillation counter.
Binding Constant (Ki) Determination
Eleven serial dilutions of test compounds were distributed to assay plates using the PE/Cetus Pro/Pette pipetter. These dilutions were, followed by radioligand and the bead-membrane mixture prepared as described above. The specifically bound cpm obtained were fit to a one-site binding model using GraphPad Prism ver. 2.0. Estimated IC50 values were converted to Ki values using the Cheng-Prusoff equation (Cheng, Y. C. et al., Biochem. Pharmacol., 22, 3099-108, 1973).

T1 sequence (P50406 whole entry): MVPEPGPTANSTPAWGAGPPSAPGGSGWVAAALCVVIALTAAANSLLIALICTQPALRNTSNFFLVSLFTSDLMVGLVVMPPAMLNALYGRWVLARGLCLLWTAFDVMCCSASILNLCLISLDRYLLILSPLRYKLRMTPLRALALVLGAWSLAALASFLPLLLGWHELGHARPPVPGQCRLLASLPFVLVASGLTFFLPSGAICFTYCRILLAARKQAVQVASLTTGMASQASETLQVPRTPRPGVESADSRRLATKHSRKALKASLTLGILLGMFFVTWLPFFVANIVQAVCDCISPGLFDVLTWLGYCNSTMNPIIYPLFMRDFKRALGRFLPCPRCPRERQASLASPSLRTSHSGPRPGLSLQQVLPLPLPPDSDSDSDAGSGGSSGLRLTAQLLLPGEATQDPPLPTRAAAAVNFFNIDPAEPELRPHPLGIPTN

| SMILES | Ki [nM] |
| --- | --- |
| CCN(CC)CCOc1cccc2c1c1cccc(C)c1n2Cc1ccccc1 [Example 4, N-{2-[(9-Benzyl-8-methyl-9H-carbazol-4-yl)oxy]ethyl}-N,N-diethylamine] | 18 |
| CCN(CC)CCOc1cccc2c1c1cccc(C)c1n2Cc1ccc(F)cc1 [Example 5, N,N-Diethyl-N-(2-{[9-(4-fluorobenzyl)-8-methyl-9H-carbazol-4-yl]oxy}ethyl)amine] | 38 |
| c1ccc(Cn2c3ccccc3c3c(OCCNCc4ccccn4)cccc32)cc1 [Example 6, N-{2-[(9-Benzyl-9H-carbazol-4-yl)oxy]ethyl}-N-(2-pyridinylmethyl)amine] | 69 |
| c1ccc(Cn2c3ccccc3c3c(OCCN4CCOCC4)cccc32)cc1 [Example 8, 9-benzyl-4-[2-(4-morpholinyl)ethoxy]-9H-carbazole] | 398 |
| OCCN1CCN(CCOc2cccc3c2c2ccccc2n3Cc2ccccc2)CC1 [Example 9, 2-(4-{2-[(9-benzyl-9H-carbazol-4-yl)oxy]ethyl}-1-piperazinyl)-1-ethanol] | 62 |
| OCCCNCCOc1cccc2c1c1ccccc1n2Cc1ccccc1 [Example 10, 3-({2-[(9-benzyl-9H-carbazol-4-yl)oxy]ethyl}amino)-1-propanol] | 20 |
| C=CCNCCOc1cccc2c1c1ccccc1n2Cc1ccccc1 [Example 11, N-{2-[(9-benzyl-9H-carbazol-4-yl)oxy]ethyl}-2-propen-1-amine] | 23 |
| c1ccc(Cn2c3ccccc3c3c(OCCNCCCN4CCOCC4)cccc32)cc1 [Example 12] | 184 |
| OCCCCCNCCOc1cccc2c1c1ccccc1n2Cc1ccccc1 [Example 13, 5-({2-[(9-benzyl-9H-carbazol-4-yl)oxy]ethyl}amino)-1-pentanol] | 43 |
| CCCNCCOc1cccc2c1c1ccccc1n2Cc1ccccc1 [Example 14, N-{2-[(9-benzyl-9H-carbazol-4-yl)oxy]ethyl}-1-propanamine] | 40 |
| CCCN(CCC)CCOc1cccc2c1c1ccccc1n2Cc1ccccc1 [Example 15, N-{2-[(9-benzyl-9H-carbazol-4-yl)oxy]ethyl}-N-propyl-1-propanamine] | 394 |
| c1ccc(CN2CCC(NCCOc3cccc4c3c3ccccc3n4Cc3ccccc3)CC2)cc1 [Example 16, 1-benzyl-N-{2-[(9-benzyl-9H-carbazol-4-yl)oxy]ethyl}-4-piperidinamine] | 148 |
| CC(C)(CO)NCCOc1cccc2c1c1ccccc1n2Cc1ccccc1 [Example 17, 2-({2-[(9-benzyl-9H-carbazol-4-yl)oxy]ethyl}amino)-2-methyl-1-propanol] | 164 |
| Clc1ccc(CCNCCOc2cccc3c2c2ccccc2n3Cc2ccccc2)cc1 [Example 18, 2-[(9-benzyl-9H-carbazol-4-yl)oxy]-N-(4-chlorophenethyl)-1-ethanamine] | 356 |
| c1ccc(Cn2c3ccccc3c3c(OCCNCC4CCCCC4)cccc32)cc1 [Example 19, 2-[(9-benzyl-9H-carbazol-4-yl)oxy]-N-(cyclohexylmethyl)-1-ethanamine] | 311 |
| c1ccc(Cn2c3ccccc3c3c(OCCNCCN4CCOCC4)cccc32)cc1 [Example 20, 2-[(9-benzyl-9H-carbazol-4-yl)oxy]-N-[2-(4-morpholinyl)ethyl]-1-ethanamine] | 37 |
| CCC(O)CNCCOc1cccc2c1c1ccccc1n2Cc1ccccc1 (centres unmarked) [Example 21, 1-({2-[(9-benzyl-9H-carbazol-4-yl)oxy]ethyl}amino)-2-butanol] | 72 |
| Fc1ccc(CCNCCOc2cccc3c2c2ccccc2n3Cc2ccccc2)cc1 [Example 22, 2-[(9-benzyl-9H-carbazol-4-yl)oxy]-N-(4-fluorophenethyl)-1-ethanamine] | 81 |
| OCCOCCNCCOc1cccc2c1c1ccccc1n2Cc1ccccc1 [Example 23, 2-[2-({2-[(9-benzyl-9H-carbazol-4-yl)oxy]ethyl}amino)ethoxy]-1-ethanol] | 32 |
| O[C@H]1CCCC[C@@H]1NCCOc1cccc2c1c1ccccc1n2Cc1ccccc1 [Example 24, (1S,2S)-2-({2-[(9-benzyl-9H-carbazol-4-yl)oxy]ethyl}amino)cyclohexanol] | 85 |
